Experiment [1] concerns lysosomes in HEK 293T cells. The experiment is described as follows: In situ lysosomal membrane potential measurement with Voltair^IM, with and without pharmacological treatment. The format is cell-based, Human. Particulars: for ΔVLys: HEK 293T.
For experiment [2], the system named is recycling endosomes in HEK 293T cells. The experiment is described as follows: Organellar membrane potential measurement, recycling endosomes. The format is cell-based, Human. Particulars: 500 nM bafilomycin A1.
For experiment [3], the system named is trans Golgi network in HEK 293 cells expressing scFv-furin. As to the kind of experiment: Organellar membrane potential measurement, trans Golgi network. Conditions: V-ATPase inhibition (bafilomycin A1 500 nM per FIG. 4). The class given is cell-based, Human.
The test system of a further experiment is early endosomes. As to the kind of experiment: Time-lapse imaging of early endosome membrane potential upon TRPML1 activation. The format is cell-based. Particulars: ML-SA1.
Experiment [4] relates to cytosolic Ca^2+ in COS-7 cells. The experiment is described as follows: Cytosolic calcium imaging with Fluo-4 AM upon ATP addition. The class given is cell-based, Monkey. Particulars: COS-7, 100 µM ATP.
The next experiment deals with lysosomes of COS-7 cells. As to the kind of experiment: Time lapse imaging of lysosomal membrane potential upon ATP addition. Particulars: COS-7, 100 µM ATP. The class given is cell-based, Monkey. From the text:
Time lapse Imaging: […] Image acquisition was briefly paused at indicated time for addition of chemicals (ML-SA1, Baf-A1, ATP or DMSO) to cells. To minimize bleaching, time-lapse imaging was done at single focal plane. Z-drift compensator module from IX83 was applied to minimize out of focus drift during time lapse imaging. The extracellular ATP induced cytosolic calcium increase was imaged by labeling COS-7 cells with cell permeable calcium sensitive dye Fluo4-AM ester. Time-lapse imaging of Fluo-4 labeled COS-7 cells were acquired using a 480/20 band pass excitation filter, 520/40 band pass emission filter and 89016 dichroic, at 1 s interval for 20 mins.

The target in experiment [5] is T1, human macrophage scavenger receptor (hMSR1) (Homo sapiens, UniProt P21757).
T1 construct: expressed in transfected cells; host or cells: HEK 293T
T1 sequence (P21757 1-451): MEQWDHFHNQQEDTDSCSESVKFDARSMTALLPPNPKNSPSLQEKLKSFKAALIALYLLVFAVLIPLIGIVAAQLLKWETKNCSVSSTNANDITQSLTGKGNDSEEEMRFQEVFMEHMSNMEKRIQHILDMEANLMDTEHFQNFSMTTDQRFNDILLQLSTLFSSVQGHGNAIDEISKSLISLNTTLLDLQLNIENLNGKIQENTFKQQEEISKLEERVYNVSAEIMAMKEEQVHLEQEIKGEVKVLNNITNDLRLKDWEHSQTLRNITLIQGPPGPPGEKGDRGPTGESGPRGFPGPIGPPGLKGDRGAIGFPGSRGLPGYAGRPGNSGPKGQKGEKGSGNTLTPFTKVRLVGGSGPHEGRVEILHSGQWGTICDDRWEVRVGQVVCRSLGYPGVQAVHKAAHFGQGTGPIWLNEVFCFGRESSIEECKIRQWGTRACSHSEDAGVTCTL
The experiment is described as follows: Competition assay of DNA device uptake with maleylated BSA. The format is cell-based. Here is the method:
Competition assay: HEK 293T cells transfected with hMSR1-CFP were washed with 1X PBS, pH 7.4 prior to labeling with the DNA device. Cells were incubated with 20 µM maleylated BSA (mBSA) for 15 min, followed by a 20 min pulse of 500 nM DNA device and 20 µM mBSA to allow internalization by receptor mediated endocytosis. Control cells were washed and pulsed for 20 mins in 500 nM DNA device without mBSA. Cells were then washed three times with 1× PBS and chased for 30 mins in complete DMEM media. Complete media was replaced with Opti-MEM solution (Thermofisher) and imaged by widefield microscopy for quantification and confocal microscopy for representative images. Whole cell intensities in the Atto647N channel were quantified for cells expressing hMSR1-CFP observed in CFP channel. The mean intensity from three different experiments were normalized against the no mBSA control, for n~50 cells.

Experiment [6] has as its system endogenous scavenger receptor. As to the kind of experiment: Competition assay of DNA nanodevice uptake in cell types expressing endogenous scavenger receptor. The class given is cell-based. Conditions: THP-1, BHK-21, HDF, RAW 264.7, T-47D, COS-7.
Where [7] appears, read: in the presence of Torin-1 and trans-ned-19 1 µM.

The values below come from patent US20230324370A1, “A DNA-Based Voltmeter for Organelles” (The University of Chicago, priority 2020, published 2023).

For the molecule `CCC(=O)N1CCN(c2ccc(-n3c(=O)ccc4cnc5ccc(-c6cnc7ccccc7c6)cc5c43)cc2C(F)(F)F)CC1` [Torin-1], the “reduction of VLys from the resting VLys” value in experiment [1] (Torin-1 1 µM, mTORC1 inhibition) is roughly 60 mV.
On to `CO/C1=C\C(C)=C\[C@@H](C)[C@@H](O)[C@@H](C)C/C(C)=C/C=C/[C@H](OC)[C@@H]([C@@H](C)[C@@H](O)[C@H](C)[C@@]2(O)C[C@@H](O)[C@H](C)[C@@H](C(C)C)O2)OC1=O` [bafilomycin A1], for which, in experiment [2], the “change of VRE upon V-ATPase inhibition” value is listed as “no change”. For the same molecule, the “membrane potential remaining across the TGN after V-ATPase inhibition” value in experiment [3] was “+75 mV”. In addition, in experiment [1] (bafilomycin A1 500 nM, V-ATPase inhibition), the “reduction of VLys from the resting membrane potential” value is recorded as ~ 100 mV.
With `CC1CC(C)(C)N(C(=O)CN2C(=O)c3ccccc3C2=O)c2ccccc21` (stereo not shown) [ML-SA1], the “membrane potential in early endosomes (VEE) upon treatment” value in the experiment with early endosomes is reported as “stayed constant”. In experiment [1] (ML-SA1 20 µM, TRPML1 activator), the ΔVLys turned out to be 90 mV.
Consider `COc1ccc([C@H]2N[C@H](C(=O)O)Cc3c2[nH]c2ccccc32)cc1CN1CCN(c2ccccc2F)CC1` [trans-ned-19], for which, in experiment [1] (setting [7]), the VLys result is on record as “+80 mV” and the “ΔVLys due to TPC2 channel inhibition” value is 35 mV.
For `Nc1ncnc2c1ncn2[C@@H]1O[C@H](COP(=O)(O)OP(=O)(O)OP(=O)(O)O)[C@@H](O)[C@H]1O` [ATP], the “time to maximum cytosolic Ca^2+ level after addition” value in experiment [4] was ~ 5 seconds. Also, in the experiment with lysosomes of COS-7 cells, the “acute hyperpolarization of the lysosomal membrane” value was “+75 mV”, the “duration of lysosomal hyperpolarization” value is listed as ~ 100 seconds and the “time from maximal cytosolic Ca^2+ elevation to lysosomal hyperpolarization” value is listed as ~ 80 seconds.
For the molecule `O=c1[nH]c2cc(C(F)(F)F)ccc2n1-c1cc(C(F)(F)F)ccc1O` [NS1619], the ΔVLys in experiment [1] (ML-SA1 as well as BK channel agonist NS1619) is 50 mV.
“maleylated BSA: a strong ligand for scavenger receptors”: the “effect on endocytosis of Voltair^PM” value in experiment [5] (CFP-hMSR1 transfected HEK 293T, 30eq. mBSA, 500 nM Voltair^PM, 30 mins) is recorded as “blocks endocytosis”. The “effect on uptake of Voltair^IM” value in experiment [5] (HEK 293T cells expressing hMSR1-CFP) was “efficiently competed out”. Further, in experiment [6], the “effect on DNA nanodevice uptake” value is listed as “decreases uptake”.
